Reference: publication PMC8667948, “Mechanism of biotin carboxylase inhibition by ethyl 4-[[2-chloro-5-(phenylcarbamoyl)phenyl]sulphonylamino]benzoate” (Journal of Enzyme Inhibition and Medicinal Chemistry, 2021)
Where two headings read alike, the source gives them in different places.

Assays:
BC = system: BC; set-up: method as in PMID 4922289; conditions: % activity of biotin; cited from earlier work
biotin carboxylase (BC) [1] = molecular target: T1, biotin carboxylase (BC) (Escherichia coli, UniProt P24182); assay: Biotin carboxylase inhibition assay, ATP or biotin varied (pyruvate kinase/lactic dehydrogenase coupled); type: biochemical; conditions: SABA1 0, 75, 150 µM
T1 construct: His tag (N); made in house
Experimental: (§1) For inhibition studies that varied ATP or biotin, initial velocities were measured as previously reported. In brief, pyruvate kinase and lactic dehydrogenase were used to couple ADP production to NADH oxidation, which can be measured spectrophotometrically at 340 nm. For inhibition studies varying ADP, activity was determined by following the production of inorganic phosphate (Pi) using the EnzChek® Phosphate Assay Kit (Molecular Probes) according to the manufacturer’s protocol. In brief, purine nucleoside phosphorylase converts 2-amino-6-mercapto-7-methylpurine riboside to ribose 1-phosphate and 2-amino-6-mercapto-7-methylpurine in the presence of Pi. This reaction is monitored at […][32]. Kinetic data were collected on a Cary60 UV-Vis spectrophotometer (Agilent Technologies)
To determine the inhibition pattern versus ATP, ATP was varied from 0.05 mM to 1.0 mM. SABA1 was held at fixed concentrations of 0.0 µM, 75 µM, or 150 µM. Biotin was held constant at 40 mM. […]
Data for inhibition studies varying ATP or biotin were analysed by nonlinear regression using the programs of Cleland[33]. Competitive inhibition data were fitted to Equation (1) where v is the experimentally determined velocity, V is maximal velocity, A is substrate concentration, Km is the Michaelis constant, I is inhibitor concentration and Kis is the inhibition constant for the slope. […]

biotin carboxylase (BC) [2] = molecular target: T1, biotin carboxylase (BC); assay: Multiple inhibition assay (Yonetani-Theorell) on BC; type: biochemical; conditions: aminooxazole varied 0.2-3.2 µM at fixed SABA1 0, 75, 150 µM; ATP 0.2 mM, biotin 40 mM; intersecting pattern
Experimental: To determine the multiple inhibition pattern with respect to ATP, aminooxazole was varied from 0.2 µM to 3.2 µM. SABA1 was held at fixed concentrations of 0.0 µM, 75 µM, or 150 µM. ATP and biotin were held constant at 0.2 mM and 40 mM, respectively. To determine the multiple inhibition pattern with respect to biotin, desthiobiotin was varied from 1.0 mM to 20 mM. SABA1 was held at fixed concentrations of 0.0 µM, 75 µM, or 150 µM. ATP and biotin were held constant at 0.2 mM and 40 mM, respectively.
Multiple inhibition data were fitted to Equation (3) where v is the experimentally determined velocity, V is maximal velocity, L and J are the concentration of the two inhibitors, KL and KJ are the apparent inhibition constants of those respective inhibitors, and α is the interaction factor of the two inhibitors. (3) v=V/1+L/KL+J/KJ+LJ/αKLKJ
Competitive inhibition means that binding of the inhibitor and the substrate to the enzyme are mutually exclusive. […] To determine if SABA1 can bind in the ATP binding site, biotin binding site or both, multiple inhibition analysis was performed as described by Yonetani and Theorell[42]. Multiple inhibition analysis is used to define the topological relationship between two different enzyme inhibitors. Initial velocities are measured while one inhibitor is varied against fixed increasing concentrations of the second inhibitor. […]

[3] = system: efflux compromised E. coli (ΔtolC::tet); conditions: cited from earlier work
[4] = molecular target: T2, Acetyl-CoA carboxylase (ACC) (Escherichia coli, UniProt P24182); assay: ACC assay, ATP varied (BC:BCCP:CT 1:2:1); type: biochemical; conditions: ATP varied 1.0-16 µM, acetyl-CoA 0.20 mM, SABA1 0, 50, 100 µM
T2 construct: His tag (N); made in house
Experimental: As stated above, the components of ACC were purified separately. Purified BC, BCCP, and CT were combined in a 1:2:1 molar ratio and allowed to equilibrate for 1 h prior to assaying ACC. To determine the inhibition pattern versus ATP, ATP was varied from 1.0 µM to 16 µM. SABA1 was held at fixed concentrations of 0.0 µM, 50 µM, or 100 µM. Acetyl-CoA was held constant at 0.20 mM. The reaction was started by the addition of enzyme.
Non-competitive inhibition data were fitted to Equation (2) where v is the experimentally determined velocity, V is maximal velocity, A is substrate concentration, Km is the Michaelis constant, I is inhibitor concentration and Kii is the inhibition constant for the intercept and Kis is the inhibition constant for the slope. (2) v=VA/Km(1+I/Kis)+A(1+I/Kii)

biotin carboxylase (BC) [5] = molecular target: T1, biotin carboxylase (BC); assay: Biotin carboxylase inhibition versus ADP (EnzChek Pi assay); type: biochemical; conditions: ADP varied 0.19-19 µM; ATP 0.6 mM; biotin 40 mM; SABA1 100 µM; fit to Equation (5)
Experimental: as §1
To determine the inhibition pattern versus ADP using the Pi assay, ADP was varied from 0.19 µM to 19 µM. ATP was held constant at 0.6 mM, biotin was held constant 40 mM, and SABA1 was held constant at 100 µM. Each reaction cocktail was incubated in the presence or absence of SABA1 for 10 min. The reaction was started by addition of biotin.
Data for inhibition studies varying ADP were analysed by nonlinear regression using the program Enzfitter[34]. […]

E. coli ACC = system: E. coli ACC; set-up: method as in PMID 26169404; conditions: cited from earlier work
[6] = system: efflux compromised P. aeruginosa strain PAO397; set-up: method as in PMID 26169404; conditions: cited from earlier work

Row | Structure (SMILES) | activity as slow alternate substrate, relative to biotin (BC) | Ki (biotin carboxylase (BC) [1]; ATP varied 0.05-1.0 mM, biotin constant 40 mM (subsaturating), read-out: Kis, competitive inhibition versus ATP) | Ki (biotin carboxylase (BC) [1]; biotin varied 20-200 mM, ATP constant 0.2 mM (subsaturating), read-out: Kis, competitive inhibition versus biotin) | α value (interaction factor of the two inhibitors) (biotin carboxylase (BC) [2]) | MIC [3] | Ki ([4]; read-out: Kii, non-competitive inhibition versus ATP) | Ki ([4]; read-out: Kis, non-competitive inhibition versus ATP) | Ki, uncompetitive inhibition versus ADP (biotin carboxylase (BC) [5]) | IC50 (E. coli ACC) | prolongs the doubling time [6]
1 | C[C@@H]1NC(=O)N[C@@H]1CCCCCC(=O)O [Desthiobiotin] | 0.2% |  |  |  |  |  |  |  |  | 
2 | CCOC(=O)c1ccc(NS(=O)(=O)c2cc(C(=O)Nc3ccccc3)ccc2Cl)cc1 [SABA1, ethyl 4-[[2-chloro-5-(phenylcarbamoyl)phenyl]sulfonylamino]benzoate] |  | 242 ± 32 µM | 142 ± 12.3 µM | 0.6 | 0.45 to 0.9 µM | 23.3 ± 4.4 µM | 96.3 ± 31.6 µM | 10.3 ± 0.1 µM | 4 µM | 30%
